Results taken from patent US20170128418A1, “COMPOSITIONS AND METHODS FOR IMPROVING LACTATION” (UNIVERSITY OF CINCINNATI, priority 2012, published 2017).

How the values were obtained:
HC11 cells = assay: PTHrP gene expression in lactogen-treated HC11 cells (real-time RT-PCR); type: cell-based, mouse; settings: lactogen-treated rodent HC11 cells
Source text: (§1) Cell culture. Primary bovine mammary epithelial cells grown in collagen gels were induced to differentiate by release of the gel from the substratum, and treating with lactogenic hormones as described (15,31). The mouse mammary epithelial cells (HC11) were maintained under growth medium conditions, and lactogen-induced by treatment of 3 day confluent cultures with prolactin, insulin, and cortisol as previously described (17).
(§2) Quantitative real-time RT-PCR amplification. Total RNA was isolated using TRIreagent® (Molecular Research) following manufacturer's procedures. RNA quality was determined through spectrophometric methods on the Nanodrop 2000 (Thermo Scientific). A total of […] was reverse transcribed using the QuantiTect reverse transcription kit (Qiagen). Quantitative real-time RT-PCR was performed using the Applied Biosystems Step One Plus system (Applied Biosystems) using fast SYBR green master mix (Applied Biosystems). The following conditions were utilized: 95′C for 20 sec. followed by 40 cycles of 95′C for 3 sec., 60′C for 30 sec.
To determine whether PTHrP expression in mammary epithelial cells was directly responsive to 5-HT two cell models of lactogenic mammary epithelium were studied: lactogen-treated rodent HC11 cells, and primary bovine mammary epithelial cells embedded in floating collagen gels. […]

[1] = test system: primary bovine mammary epithelial cells; assay: PTHrP gene expression in primary bovine mammary epithelial cells in floating collagen gels (real-time RT-PCR); type: cell-based; settings: primary bovine mammary epithelial cells embedded in floating collagen gels
Source text: as §1
Primary bovine mammary epithelial cells (pBMEC) were obtained as a generous gift from Dr. Robert Collier at the University of Arizona and cultured as previously described (15, 31).
as §2, with “30 sec. […]” for “30 sec.”

[2] = test system: vascular smooth muscle cells; settings: previous study; cited from earlier work
PTHrP = assay: 5-HTP injection rescue of TPH1 knockout mice, plasma PTHrP (IRMA); type: in vivo; settings: TPH1 knockout mice injected with 5-HTP; P<0.0001, R=0.92
Procedure: TPH1^−/−, and corresponding wild type control animals (C57BL/6J genetic background) were bred and maintained in our animal facility. All experiments were performed under protocols approved by the University of Cincinnati Institutional Animal Care and Use Committee. Plasma was collected for PTHrP assay from non-lactating wild type mice and both wild type and TPH1^−/− animals on day 10 of lactation. Mammary gland tissues (#4 glands counted from most rostral) were collected for immunostaining from TPH1^−/− animals and wild type controls on day 10 of lactation, and were fixed in 4% paraformaldehyde, before being paraffin embedded and sectioned.
PTHrP IRMA. Plasma PTHrP levels were measured using a two-site immunoradiometric assay specific for PTHrP 1-86 (Becton Dickinson), following the manufacturer's instructions. The detection limit (blank serum+1 standard deviation) was 0.3 pM under the conditions of this assay.
The conversion of L-tryptophan to 5-hydroxytryptophan (5-HTP) is the rate-limiting step in 5-HT synthesis; therefore we injected 5-HTP to bypass the enzyme deficiency in TPH1 mice, and measured PTHrP plasma levels.

[3] = Circulating 5-HT and PTHrP in rats fed a 5-HTP supplemented diet; type: in vivo; settings: rats fed 0.2% 5-HTP diet from d13 pregnancy through d9 lactation vs control breeder diet
Procedure: FIG. 1 depicts the circulating levels of (A) serum 5-HT and (B) plasma PTHrP in rats fed 0.2% 5-HTP from d13 pregnancy through d9 lactation compared to rats fed a control breeder diet.
Based on the foregoing results, studies were conducted to establish, in practice, that feeding a diet supplemented with 5-HTP would elevate circulating levels of serotonin (5-HT) and PTHrP. Rats were fed a diet supplemented with 0.2% 5-HTP, and circulating levels of 5-HT (serum) and PTHrP (plasma) in the rats fed 0.2% 5-HTP from d13 pregnancy through d9 lactation were compared to rats fed a control breeder diet.

[4] = Serum and milk calcium in rats fed a 5-HTP supplemented diet; type: in vivo; settings: rats fed 0.2% 5-HTP diet from d13 pregnancy, vs control diet
Procedure: FIG. 2 depicts the serum and milk calcium concentrations in rats fed 0.2% 5-HTP (n=15) from d13 pregnancy-d9 lactation compared to rats fed a control (n=15) breeder diet at (A) day 1 of lactation and (B) day 9 of lactation.
Based on the foregoing results, studies were conducted to establish, in practice, that feeding a diet supplemented with 5-HTP would elevate circulating calcium levels in lactating animals. Serum and milk calcium concentrations were measured in rats fed a diet supplemented with 0.2% 5-HTP (n=15) from d13 pregnancy-d9 lactation, compared to rats fed a control (n=15) diet. Serum calcium concentrations were elevated by 5-HTP supplementation on dl of lactation, and subsequently, milk calcium levels were elevated by 5-HTP on d9 of lactation (FIG. 2).

mammary cells = assay: PTHrP induction by prolactin in mammary epithelium cell cultures; type: cell-based; settings: conventional cell cultures of mammary epithelium
Source text: PTHrP is undetectable in the circulation except during lactation, in advanced metastatic disease, or in patients with hyperprolactinemia.

## NCCc1c[nH]c2ccc(O)cc12 [5-HT, serotonin]
HC11 cells
  PTHrP gene expression induction: 8 fold
[1]
  PTHrP gene expression induction: 20 fold
[2]
  PTHrP expression: induced

## N[C@@H](Cc1c[nH]c2ccc(O)cc12)C(=O)O [5-HTP, 5-Hydroxytryptophan]
PTHrP
  plasma PTHrP: time-dependent increase
[3]
  circulating 5-HT (serum): elevation
  circulating PTHrP (plasma): elevation
[4]; d9 of lactation
  milk calcium levels: elevated
[4]; dl of lactation
  serum calcium concentrations: elevated

B1: prolactin (protein, UniProt P01236 29-227, looked up)
Prolactin: LPICPGGAARCQVTLRDLFDRAVVLSHYIHNLSSEMFSEFDKRYTHGRGFITKAINSCHTSSLATPEDKEQAQQMNQKDFLSLIVSILRSWNEPLYHLVTEVRGMQEAPEAILSKAVEIEEQTKRLLEGMELIVSQVHPETKENEIYPVWSGLPSLQMADEESRLSAYYNLLHCLRRDSHKIDNYLKLLKCRIIHNNNC
notes: prolactin hormone
Mammary cells
  PTHrP induction: did not induce
